Source: patent US6387922B2, “Annulated azole derivatives useful as microbicidal agents” (Bayer Aktiengesellschaft, priority 1997, dated 2002)

Legend:
Venturia inaequalis = experiment: Venturia Test (Apple)/protective; assay type: in vivo; conditions: apple young plants, protective spray, application rate 100 g/ha, evaluation 12 days after inoculation; 0% = as control, 100% = no infection
Description: Venturia Test (Apple)/protective
(§1) Solvent: 47 parts by weight of acetone
(§2) Emulsifier: 3 parts by weight of alkyl-aryl polyglycol ether
To produce a suitable preparation of active compound, 1 part by weight of active compound is mixed with the stated amounts of solvent and emulsifier, and the concentrate is diluted with water to the desired concentration.
To test for protective activity, young plants are sprayed with the preparation of active compound at the stated application rate. After the spray coating has dried on, the plants are inoculated with an aqueous conidia suspension of the causative organism of apple scab Venturia inaequalis and then remain in an incubation cabin at approximately 20° C. and 100% relative atmospheric humidity for 1 day.
The plants are then placed in a greenhouse at approximately 21° C. and a relative atmospheric humidity of approximately 90%.
Evaluation is carried out 12 days after the inoculation. 0% means an efficacy which corresponds to that of the control, whereas an efficacy of 100% means that no infection is observed.

Plasmopara viticola = experiment: Plasmopara Test (grapevine)/protective; assay type: in vivo; conditions: grapevine young plants, protective spray, application rate 100 g/ha, evaluation 6 days after inoculation; 0% = as control, 100% = no infection
Description: Plasmopara Test (grapevine)/protective
as §1, §2
To produce a suitable preparation of the active compound, 1 part by weight of active compound is mixed with the stated amounts of solvent and emulsifier, and the concentrate is diluted with water to the desired concentration.
To test for protective activity, young plants are sprayed with a preparation of active compound at the stated application rate. After the spray coating has dried on, the plants are inoculated with an aqueous spore suspension of Plasmopara viticola and then remain in an incubation cabin at approximately 20° C. and 100% relative atmospheric humidity for 1 day. The plants are then placed in a greenhouse at approximately 21° C. and approximately 90% atmospheric humidity for 5 days. The plants are then moistened and placed in an incubation cabin for 1 day.
Evaluation is carried out 6 days after the inoculation. 0% means an efficacy which corresponds to that of the control, whereas an efficacy of 100% means that no infection is observed.

| melting point | SMILES | Efficacy in % (Venturia inaequalis) | Efficacy in % (Plasmopara viticola) |
| --- | --- | --- | --- |
| 130 to 135 °C | Cc1noc(C)c1S(=O)(=O)n1cnc2cnccc21 [Example 2, 1-(3,5-dimethyl-isoxazole-4-sulphonyl)-1H-imidazo[4,5-c]pyridine] | 95% | 90% |
| – | Cc1noc(C)c1S(=O)(=O)n1nnc2ccccc21 [1-(3,5-dimethyl-isoxazol-4-sulphonyl)-1H-benzotriazole, reference compound] | 0% | 49% |
